What was measured:
Format in all cases: cell-based, human
MMP-2 [1] = experiment: MMP activity of skin fibroblasts stimulated with 1 mg/ml hyaluronane (zymography), expression of MMP-2; conditions: 1 mg/ml of hyaluronane, 10 μg/ml, 24 hours (section b.2 fibroblasts; title says skin explants not stimulated)
Text: (§1) Skin fibroblast from a skin of the belly of a person were cultivated until the 7th cellular passage in a DMEM Glutamax (GIBCO) medium containing 1% of antibiotics and of fungicide and 10% of fetal calf serum and were used for the experiment. The fibroblasts were inseminated on 6-well plates at a density of 5.10^4 cells per well. When at the confluence, the culture medium was replaced by a DMEM medium, without phenol red containing 0.1% of BSA and containing the different substances to be treated at a concentration of 10 μg/ml. After 24 hours of culture at 37° C. (5% (v/v) CO2, 95% (v/v) air) the samples were recovered.
(§2) As in the case of the cultures of skin explants, the culture media of the fibroblasts were studied with zymography.
a.2.2) MMP Activity of the Fibroblasts of Skin Stimulated with 1 mg/ml of Hyaluronane
The protocol of the studies is the same as that used for the study of the MMP activity of the non-stimulated fibroblasts of skin, but with hyaluronane with a concentration of 1 mg/ml and the samples of oligosaccharides with a concentration of 10 μg/ml, added in the culture medium.
(§3) When the fibroblasts are cultivated in monolayer, only the widely secreted MMP-2 is visible with a very low quantity of MMP-9, however, present.

MMP-2 [2] = experiment: MMP activity of non-stimulated skin explants (gelatin zymography), MMP-2; conditions: 10 μg/ml, 48 hours
Procedure: (§4) Skin explants from a skin of the belly of a person were cultivated in a DMEM medium without phenol red (GIBCO) under stirring at 37° C. for 48 hours with different treatments. The samples were treated with a concentration of 10 μg/ml.
(§5) Extracellular medium-1 ml of medium
(§6) Intracellular medium-explant ground with ultraturax in 1 ml of MMP buffer
(§7) 0.1 M Tris-HCl, pH 7.5, 0.1 M NaCl, 10 mM CaCl2, 1 mM zinc acetate
(§8) Gelatin, substrate of the MMP-s, was co-polymerized at final 1 mg/ml with a gel of polyacrylamide at 10%. The extracellular media from the cultures of skin explant were deposited on the top of the gel, the electrophoresis was carried out at 150 volts. The gels were then incubated in MMP buffer for 24 hours under stirring at 37° C. The gels were then colored with Coomassie blue, then uncolored with distilled water. The lise ranges corresponding to an MMP activity, appeared as white, while the background of the gel was blue. In function of the distance of migration of proteins, one could determine the molecular weights of the enzymes having digested the gelatin. The MMP activity was quantified by morphometric analysis with the aid of a Visiolab computer.

MMP-9 [3] = experiment: MMP activity of non-stimulated skin explants (gelatin zymography), MMP-9; conditions: 10 μg/ml, 48 hours
Procedure: as §4, §5, §6, §7, §8

MMP-2 [4] = experiment: MMP activity of skin explants stimulated with hyaluronane (gelatin zymography), MMP-2; conditions: skin explants stimulated with 1 mg/ml of hyaluronane, 10 μg/ml
Procedure: as §4
as §8, with “computer. […]” for “computer.”
(§9) The protocol of the studies was the same as that used for the study of the MMP activity of the non-stimulated skin explants, but with hyaluronane with a concentration of […] and the samples of oligosaccharides with a concentration of 10 μg/ml, added in the culture medium.

MMP-2 [5] = experiment: MMP activity of non-stimulated skin fibroblasts in monolayer (zymography), expression of MMP-2; conditions: 10 μg/ml, 24 hours (section b.2 fibroblasts; title says skin explants)
Text: as §1
Extracellular medium−1 ml of medium+2 rinsings with 0.25 ml of PBS
Intracellular medium−cellular carpet sonicated with 1 ml of MMP buffer
MMP Buffer composition 0.1 M Tris-HCl, pH 7.5, 0.1 M NaCl, 10 mM CaCl2, 1 mM zinc acetate
as §2, §3

MMP-9 [6] = experiment: MMP activity of skin explants stimulated with hyaluronane (gelatin zymography), MMP-9; conditions: skin explants stimulated with 1 mg/ml of hyaluronane, 10 μg/ml
Procedure: as §4
as §8, with “computer. […]” for “computer.”
as §9

In the case of `C[C@H](O)[C@@H](O)[C@@H](O)[C@H](O)C=O` [Fucose, fucose], the “% effectiveness: reduction of the expression of MMP-2 with respect to the control” value (MMP-2 [1]) is reported as 11%, the “Active/Inactive MMP-2 (active form/inactive form relationship of the enzyme)” value (MMP-2 [2]) is reported as 0.80 and the “% of effectiveness: reduction of active/inactive relationship of MMP-2” value (MMP-2 [2]; vs control) is reported as 6%. For the same compound, the “Active/Inactive MMP-9 (active form/inactive form relationship of the enzyme)” value (MMP-9 [3]) was 2.38, the “% effectiveness: reduction of active/inactive relationship of MMP-9” value (MMP-9 [3]; vs control) was 57% and the “Active/Inactive MMP-2 (active form/inactive form relationship of the enzyme)” value (MMP-2 [4]) was 1.65. The “% effectiveness: reduction of active/inactive relationship of MMP-2” value (MMP-2 [4]; vs control) was “Ns”, the “% of effectiveness: reduction of the expression of MMP-2” value (MMP-2 [5]) was 6% and the “Active/Inactive MMP-9 (active form/inactive form relationship of the enzyme)” value (MMP-9 [6]) was 3.54. The “% effectiveness: reduction of active/inactive relationship of MMP-9” value (MMP-9 [6]; vs control) was 50%.
